# Experimental data reported in patent US11464782B2, “Method of treating pain or interstitial cystitis using indole compound” (Japan Tobacco Inc., priority 2018, dated 2022).
# Structures can show the parent of a compound that is named as a salt.
# Assays:
# [1] = system: NGF-induced thermal hyperalgesia; assay: NGF-induced thermal hyperalgesia in rats (plantar test, paw withdrawal latency); type: in vivo, rat
# Protocol: In order to induce a pain-related behavior (withdrawal behavior), NGF was injected into the plantar area of the left hind paw of rats and the thermal latencies/mechanical thresholds were measured. The effects of Compound A on these withdrawal behaviors were investigated. At 2 days before the injection of NGF, the thermal latencies or mechanical thresholds were measured for acclimation to the experimental environment. On the day before injection of NGF, body weights and values of the thermal latencies or mechanical thresholds were obtained. 50 μL of NGF solution was injected intraplantar to left hind paw of rats. 0.5 μg/site of NGF was selected in the evaluation of thermal stimuli and 1 μg/site was selected in that of mechanical stimuli. A monohydrochloride of Compound A (1, 3, or 10 mg/kg) was administered orally at the same time as the NGF injection. The latencies to thermal stimuli were measured at 3 and 6 hours after injection of NGF solution, and the thresholds to mechanical stimuli were measured at 1, 3 and 6 hours after injection of NGF solution. The evaluation was performed as a blind test of each group. The thermal latency was measured using a plantar test apparatus. An infrared heat stimuli was delivered to the plantar area of the hind paw and the time to withdraw the paw from the heat source was recorded automatically as the thermal latency. The measurement was performed 5 times for both hind paws of each animal, the averages of the last 3 values in each hind paw were accounted as the thermal latencies of each animal. The measurement for acclimation was performed only 3 times.
# [2] = system: NGF-induced mechanical hyperalgesia; assay: NGF-induced mechanical hyperalgesia in rats (pressure analgesy-meter, paw withdrawal threshold); type: in vivo, rat
# Protocol: In order to induce a pain-related behavior (withdrawal behavior), NGF was injected into the plantar area of the left hind paw of rats and the thermal latencies/mechanical thresholds were measured. The effects of Compound A on these withdrawal behaviors were investigated. At 2 days before the injection of NGF, the thermal latencies or mechanical thresholds were measured for acclimation to the experimental environment. On the day before injection of NGF, body weights and values of the thermal latencies or mechanical thresholds were obtained. 50 μL of NGF solution was injected intraplantar to left hind paw of rats. 0.5 μg/site of NGF was selected in the evaluation of thermal stimuli and 1 μg/site was selected in that of mechanical stimuli. A monohydrochloride of Compound A (1, 3, or 10 mg/kg) was administered orally at the same time as the NGF injection. The latencies to thermal stimuli were measured at 3 and 6 hours after injection of NGF solution, and the thresholds to mechanical stimuli were measured at 1, 3 and 6 hours after injection of NGF solution. The evaluation was performed as a blind test of each group. The mechanical threshold was measured using a pressure analgesy-meter. A mechanical stimulus (pressure) increased at a constant rate was added to the hind paw, and the pressure under load until animals withdrew its hind paw or vocalization was recorded as the mechanical threshold (mmHg).
# [3] = 1 mg/kg oral, right hind paw (uninjected side), 3 hr
# [4] = 1 mg/kg oral, right hind paw (uninjected side), 6 hr
# [5] = 1 mg/kg oral, right hind paw (uninjected side), pre
# [6] = 3 mg/kg oral, right hind paw (uninjected side), 3 hr
# [7] = 3 mg/kg oral, right hind paw (uninjected side), 6 hr
# [8] = 3 mg/kg oral, right hind paw (uninjected side), pre
# [9] = 10 mg/kg oral, right hind paw (uninjected side), 3 hr
# [10] = 10 mg/kg oral, right hind paw (uninjected side), 6 hr
# [11] = 10 mg/kg oral, right hind paw (uninjected side), pre
compound,measurement,setting,value
C[C@@H](C(=O)N(C)c1ccc2cc(-c3n[nH]c4c3CCC(C)(C)C4)[nH]c2c1)N1CCOCC1 [Compound A•HCl],Paw Withdrawal Latency,"[1]; 1 mg/kg oral, left hind paw (injected side, NGF 0.5 μg/site), 3 hr",10.0 ± 2.6 s
same,Paw Withdrawal Latency,"[1]; 1 mg/kg oral, left hind paw (injected side, NGF 0.5 μg/site), 6 hr",8.7 ± 2.0 s
same,Paw Withdrawal Latency,"[1]; 1 mg/kg oral, left hind paw (injected side, NGF 0.5 μg/site), pre",11.4 ± 1.2 s
same,Paw Withdrawal Latency,[1]; [3],10.9 ± 1.4 s
same,Paw Withdrawal Latency,[1]; [4],10.8 ± 2.4 s
same,Paw Withdrawal Latency,[1]; [5],11.6 ± 1.1 s
same,Paw Withdrawal Latency,"[1]; 3 mg/kg oral, left hind paw (injected side, NGF 0.5 μg/site), 3 hr",10.3 ± 1.6 s
same,Paw Withdrawal Latency,"[1]; 3 mg/kg oral, left hind paw (injected side, NGF 0.5 μg/site), 6 hr",9.9 ± 1.5 s
same,Paw Withdrawal Latency,"[1]; 3 mg/kg oral, left hind paw (injected side, NGF 0.5 μg/site), pre",11.2 ± 1.9 s
same,Paw Withdrawal Latency,[1]; [6],12.3 ± 2.2 s
same,Paw Withdrawal Latency,[1]; [7],11.9 ± 1.9 s
same,Paw Withdrawal Latency,[1]; [8],11.6 ± 1.5 s
same,Paw Withdrawal Latency,"[1]; 10 mg/kg oral, left hind paw (injected side, NGF 0.5 μg/site), 3 hr",11.6 ± 2.4 s
same,Paw Withdrawal Latency,"[1]; 10 mg/kg oral, left hind paw (injected side, NGF 0.5 μg/site), 6 hr",11.3 ± 1.4 s
same,Paw Withdrawal Latency,"[1]; 10 mg/kg oral, left hind paw (injected side, NGF 0.5 μg/site), pre",12.0 ± 1.1 s
same,Paw Withdrawal Latency,[1]; [9],11.9 ± 2.7 s
same,Paw Withdrawal Latency,[1]; [10],11.5 ± 1.2 s
same,Paw Withdrawal Latency,[1]; [11],11.9 ± 1.2 s
same,Paw Withdrawal Threshold (mmHg),"[2]; 1 mg/kg oral, left hind paw (injected side, NGF 1 μg/site), 1 hr",107 ± 17 mmHg
same,Paw Withdrawal Threshold (mmHg),"[2]; 1 mg/kg oral, left hind paw (injected side, NGF 1 μg/site), 3 hr",104 ± 20 mmHg
same,Paw Withdrawal Threshold (mmHg),"[2]; 1 mg/kg oral, left hind paw (injected side, NGF 1 μg/site), 6 hr",90 ± 11 mmHg
same,Paw Withdrawal Threshold (mmHg),"[2]; 1 mg/kg oral, left hind paw (injected side, NGF 1 μg/site), Pre",126 ± 21 mmHg
same,Paw Withdrawal Threshold (mmHg),"[2]; 1 mg/kg oral, right hind paw (uninjected side), 1 hr",134 ± 16 mmHg
same,Paw Withdrawal Threshold (mmHg),[2]; [3],135 ± 21 mmHg
same,Paw Withdrawal Threshold (mmHg),[2]; [4],133 ± 9 mmHg
same,Paw Withdrawal Threshold (mmHg),[2]; [5],132 ± 15 mmHg
same,Paw Withdrawal Threshold (mmHg),"[2]; 3 mg/kg oral, left hind paw (injected side, NGF 1 μg/site), 1 hr",118 ± 17 mmHg
same,Paw Withdrawal Threshold (mmHg),"[2]; 3 mg/kg oral, left hind paw (injected side, NGF 1 μg/site), 3 hr",121 ± 21 mmHg
same,Paw Withdrawal Threshold (mmHg),"[2]; 3 mg/kg oral, left hind paw (injected side, NGF 1 μg/site), 6 hr",106 ± 11 mmHg
same,Paw Withdrawal Threshold (mmHg),"[2]; 3 mg/kg oral, left hind paw (injected side, NGF 1 μg/site), Pre",152 ± 26 mmHg
same,Paw Withdrawal Threshold (mmHg),"[2]; 3 mg/kg oral, right hind paw (uninjected side), 1 hr",133 ± 19 mmHg
same,Paw Withdrawal Threshold (mmHg),[2]; [6],141 ± 10 mmHg
same,Paw Withdrawal Threshold (mmHg),[2]; [7],144 ± 23 mmHg
same,Paw Withdrawal Threshold (mmHg),[2]; [8],148 ± 25 mmHg
same,Paw Withdrawal Threshold (mmHg),"[2]; 10 mg/kg oral, left hind paw (injected side, NGF 1 μg/site), 1 hr",130 ± 20 mmHg
same,Paw Withdrawal Threshold (mmHg),"[2]; 10 mg/kg oral, left hind paw (injected side, NGF 1 μg/site), 3 hr",134 ± 22 mmHg
same,Paw Withdrawal Threshold (mmHg),"[2]; 10 mg/kg oral, left hind paw (injected side, NGF 1 μg/site), 6 hr",130 ± 18 mmHg
same,Paw Withdrawal Threshold (mmHg),"[2]; 10 mg/kg oral, left hind paw (injected side, NGF 1 μg/site), Pre",136 ± 17 mmHg
same,Paw Withdrawal Threshold (mmHg),"[2]; 10 mg/kg oral, right hind paw (uninjected side), 1 hr",144 ± 14 mmHg
same,Paw Withdrawal Threshold (mmHg),[2]; [9],139 ± 17 mmHg
same,Paw Withdrawal Threshold (mmHg),[2]; [10],139 ± 13 mmHg
same,Paw Withdrawal Threshold (mmHg),[2]; [11],139 ± 17 mmHg
